How the values were obtained:
watergrass, late = test: Test F flood (paddy) test; type: in vivo, Echinochloa oryzicola; conditions: 21 d, scale 0-100
Excerpt: Three plastic pots (ca. 16-cm diameter) per rate were partially filled with sterilized Tama silt loam soil comprising a 35:50:15 ratio of sand, silt and clay and 2.6% organic matter. Separate plantings for each of the three pots were as follows. Seeds from the U.S. of monochoria (Monochoria vaginalis), sedge, umbrella (small-flower umbrella sedge, Cyperus difformis), bulrush, […] bulrush, Scirpus juncoides), and […] (purple […] coccinea), were planted into one 16-cm pot for each rate. Seeds from the U.S. of flatsedge, rice (rice flatsedge, Cyperus iria), sprangletop, Brdd. (bearded sprangletop, Leptochloa fascicularis), one stand of 9 or 10 water seeded rice seedlings (Rice, W.S. Jap, Oryza sativa cv. 'Japonica-[…]' or Rice, W.S. Ind, 'Indica'), and two stands of 3 or 4 seedlings of rice, transplanted (transplanted rice, Oryza sativa cv. 'Japonica-[…]') were planted into one 16-cm pot for each rate. Seeds from the U.S. of barnyardgrass (Echinochloa crus-galli), […] (common […], Alisma plantago-aquatica), and watergrass, late (late watergrass, Echinochloa oryzicola) were planted into one 16-cm pot for each rate. Plantings were sequential so that crop and weed species were at the 2.0 to 2.5-leaf stage at time of treatment. Potted plants were grown in a greenhouse with day/night temperature settings of 30/27° C., and supplemental balanced lighting was provided to maintain a 16-h photoperiod. Test pots were maintained in the greenhouse until test completion. At time of treatment, test pots were flooded to 3 cm above the soil surface, treated by application of test compounds directly to the paddy water, and then maintained at that water depth for the duration of the test. Effects of treatments on rice and weeds were visually evaluated by comparison to untreated controls after 21 d. Plant response ratings, summarized in Table F, are based on a scale of 0 to 100 where 0 is no effect and 100 is complete control. A dash (-) response means no test result.

Russian thistle = test: Test D pre-/postemergence herbicide test; type: in vivo, Salsola kali; conditions: for Plant response rating: Postemergence, Russian Thistle, scale 0 to 100; for Plant response rating, Russian Thistle: Preemergence, scale 0 to 100 (0 no effect, 100 complete control)
Excerpt: (§1) Seeds of plant species selected from bluegrass (annual bluegrass, Poa annua), blackgrass (Alopecurus myosuroides), canarygrass (littleseed canarygrass, Phalaris minor), chickweed (common chickweed, Stellaria media), galium (catchweed bedstraw, Galium aparine), bromegrass, downy (downy bromegrass, Bromus tectorum), field poppy (Papaver rhoeas), field violet (Viola arvensis), foxtail, green (green foxtail, Setaria viridis), deadnettle (henbit deadnettle, Lamium amplexicaule), ryegrass, Italian (Italian ryegrass, Lolium multiflorum), kochia (Kochia scoparia), lambsquarters (Chenopodium album), oilseed rape (Brassica napus), pigweed (Amaranthus retroflexus), chamomile (scentless chamomile, Matricaria inodora), Russian thistle (Salsola kali), speedwell (bird's-eye speedwell, Veronica persica), barley, spring (spring barley, Hordeum vulgare), wheat, spring (spring wheat, Triticum aestivum), buckwheat, wild (wild buckwheat, Polygonum convolvulus), mustard, wild (wild mustard, Sinapis arvensis), oat, wild (wild oat, Avena fatua), radish, wild (wild radish, Raphanus raphanistrum), […]), barley, winter (winter barley, Hordeum vulgare), and wheat, winter (winter wheat, Triticum aestivum) were planted into a silt loam soil and treated preemergence with test chemicals formulated in a non-phytotoxic solvent mixture which included a surfactant. At the same time, these species were planted in pots containing Redi-Earth® planting medium (Scotts Company, 14111 Scottslawn Road, Marysville, Ohio 43041) comprising spaghnum peat moss, vermiculite, wetting agent and starter nutrients and treated with postemergence applications of the test chemicals formulated in the same manner. Plants ranged in height from 2 to 18 cm (1- to 4-leaf stage). Treated plants and controls were maintained in a controlled growth environment for 7 to 21 days after which time all species were compared to controls and visually evaluated. Plant response ratings, summarized in Table D, are based on a scale of 0 to 100 where 0 is no effect and 100 is complete control. A dash (-) response means no test result.

speedwell = test: Test D pre-/postemergence herbicide test; type: in vivo, Veronica persica; conditions: for Plant response rating: Postemergence, Speedwell, scale 0 to 100; for Plant response rating, Speedwell: Preemergence, scale 0 to 100 (0 no effect, 100 complete control)
Excerpt: as §1

ragweed = test: Test E preemergence herbicide test; type: in vivo, Ambrosia elatior; design: key: 0 = no effect, 100 = complete control
Excerpt: (§2) Seeds of plant species selected from corn (Zea mays), soybean (Glycine max), velvetleaf (Abutilon theophrasti), lambsquarters (Chenopodium album), wild poinsettia (Euphorbia heterophylla), pigweed, palmer (palmer pigweed, Amaranthus palmeri), waterhemp (common waterhemp, Amaranthus rudis), surinam grass (Brachiaria decumbens), crabgrass, large (large crabgrass, Digitaria sanguinalis), crabgrass, Brazil (Brazilian crabgrass, Digitaria horizontalis), panicum, fall (fall panicum, Panicum dichotomiflorum), foxtail, giant (giant foxtail, Setaria faberii), foxtail, green (green foxtail, Setaria viridis), goosegrass (Eleusine indica), johnsongrass (Sorghum halepense), ragweed (common ragweed, Ambrosia elatior), barnyardgrass (Echinochloa crus-galli), sandbur (southern sandbur, Cenchrus echinatus), arrowleaf […] rhombifolia), ryegrass, Italian (Italian ryegrass, Lolium multiflorum), dayflower, VA (Virginia dayflower, Commelina virginica), field bindweed (Convolvulus arvensis), morningglory (Ipomoea coccinea), nightshade (eastern black nightshade, Solanum ptycanthum), kochia (Kochia scoparia), nutsedge, yellow (yellow nutsedge, Cyperus esculentus), cocklebur (common cocklebur, Xanthium strumarium), smartweed (ladysthumb smartweed, Polygonum Persicaria) and beggarticks (hairy beggarticks, Bidens pilosa), were planted into a silt loam soil and treated preemergence with test chemicals formulated in a non-phytotoxic solvent mixture which included a surfactant. Treated plants and controls were maintained in a greenhouse for 21 days, after which time all species were compared to controls and visually evaluated. Plant response ratings, summarized in Table E, are based on a scale of 0 to 100 where 0 is no effect and 100 is complete control. A dash (-) response means no test result.

crabgrass, Brazil = test: Test E preemergence herbicide test; type: in vivo, Digitaria horizontalis; design: key: 0 = no effect, 100 = complete control
Excerpt: as §2

arrowleaf sida = test: Test E preemergence herbicide test; type: in vivo, Sida rhombifolia; design: key: 0 = no effect, 100 = complete control
Excerpt: as §2

wild poinsettia = test: Test E preemergence herbicide test; type: in vivo, Euphorbia heterophylla; design: key: 0 = no effect, 100 = complete control
Excerpt: as §2

Compound: CN1CC(c2ccc(F)cc2)C(C(=O)Nc2cccc(F)c2F)C1=O (stereo not drawn) [Compound 271]
- Plant response rating, Watergrass, Late (watergrass, late; 64 g ai/ha): 45
- Plant response rating, Watergrass, Late (watergrass, late; 125 g ai/ha): 75
- Plant response rating, Watergrass, Late (watergrass, late; 250 g ai/ha): 100
- Plant response rating, Watergrass, Late (watergrass, late; 500 g ai/ha): 100

Compound: O=C1NCC(c2ccc(F)c(F)c2)C1C(=O)Nc1cccc(F)c1 (racemic) [Compound 12]
- Plant response rating (Russian thistle; 16 g ai/ha): 0
- Plant response rating (Russian thistle; 31 g ai/ha): 0
- Plant response rating (Russian thistle; 62 g ai/ha): 20
- Plant response rating (Russian thistle; 125 g ai/ha): 30
- Plant response rating (Russian thistle; 250 g ai/ha): 80
- Plant response rating, Russian Thistle (Russian thistle; 31 g ai/ha): 0
- Plant response rating, Russian Thistle (Russian thistle; 62 g ai/ha): 0
- Plant response rating, Russian Thistle (Russian thistle; 125 g ai/ha): 0
- Plant response rating, Russian Thistle (Russian thistle; 250 g ai/ha): 0
- Plant response rating, Russian Thistle (Russian thistle; 16 g ai/ha): 0
- Plant response rating (speedwell; 16 g ai/ha): 0
- Plant response rating (speedwell; 31 g ai/ha): 0
- Plant response rating (speedwell; 62 g ai/ha): 10
- Plant response rating (speedwell; 125 g ai/ha): 10
- Plant response rating (speedwell; 250 g ai/ha): 25
- Plant response rating, Speedwell (speedwell; 31 g ai/ha): 0
- Plant response rating, Speedwell (speedwell; 62 g ai/ha): 0
- Plant response rating, Speedwell (speedwell; 125 g ai/ha): 0
- Plant response rating, Speedwell (speedwell; 250 g ai/ha): 100
- Plant response rating, Speedwell (speedwell; 16 g ai/ha): 0

Compound: O=C1NCC(c2ccc(C(F)(F)F)cc2)C1C(=O)Nc1ccc(F)c(F)c1F (stereo not drawn) [Compound 232]
- Plant response rating, Ragweed (ragweed; 31 g ai/ha): 35
- Plant response rating, Ragweed (ragweed; 62 g ai/ha): 75
- Plant response rating, Ragweed (ragweed; 125 g ai/ha): 95
- Plant response rating, Ragweed (ragweed; 250 g ai/ha): 95
- Plant response rating, Crabgrass, Brazil (crabgrass, Brazil; 31 g ai/ha): 95
- Plant response rating, Crabgrass, Brazil (crabgrass, Brazil; 62 g ai/ha): 98
- Plant response rating, Crabgrass, Brazil (crabgrass, Brazil; 125 g ai/ha): 98
- Plant response rating, Crabgrass, Brazil (crabgrass, Brazil; 250 g ai/ha): 98
- Plant response rating, Arrowleaf Sida (arrowleaf sida; 31 g ai/ha): 0
- Plant response rating, Arrowleaf Sida (arrowleaf sida; 62 g ai/ha): 20
- Plant response rating, Arrowleaf Sida (arrowleaf sida; 125 g ai/ha): 65
- Plant response rating, Arrowleaf Sida (arrowleaf sida; 250 g ai/ha): 90
- Plant response rating, Poinsettia, Wild (wild poinsettia; 31 g ai/ha): 0
- Plant response rating, Poinsettia, Wild (wild poinsettia; 62 g ai/ha): 0
- Plant response rating, Poinsettia, Wild (wild poinsettia; 125 g ai/ha): 35
- Plant response rating, Poinsettia, Wild (wild poinsettia; 250 g ai/ha): 40

Compound: O=C1NCC(c2cc(F)c(F)c(F)c2)C1C(=O)Nc1ccccc1F (racemic) [Compound 34]
- Plant response rating (Russian thistle; 16 g ai/ha): 0
- Plant response rating (Russian thistle; 31 g ai/ha): 0
- Plant response rating (Russian thistle; 62 g ai/ha): 0
- Plant response rating (Russian thistle; 125 g ai/ha): 0
- Plant response rating (Russian thistle; 250 g ai/ha): 0
- Plant response rating (speedwell; 16 g ai/ha): 0
- Plant response rating (speedwell; 31 g ai/ha): 0
- Plant response rating (speedwell; 62 g ai/ha): 0
- Plant response rating (speedwell; 125 g ai/ha): 0
- Plant response rating (speedwell; 250 g ai/ha): 30

Compound: O=C1NCC(c2ccc(F)cc2)C1C(=O)Nc1ccccc1F (racemic) [Compound 16]
- Plant response rating, Ragweed (ragweed; 62 g ai/ha): 0
- Plant response rating, Ragweed (ragweed; 125 g ai/ha): 0
- Plant response rating, Ragweed (ragweed; 250 g ai/ha): 0
- Plant response rating, Crabgrass, Brazil (crabgrass, Brazil; 16 g ai/ha): 25
- Plant response rating, Crabgrass, Brazil (crabgrass, Brazil; 31 g ai/ha): 25
- Plant response rating, Crabgrass, Brazil (crabgrass, Brazil; 62 g ai/ha): 65
- Plant response rating, Crabgrass, Brazil (crabgrass, Brazil; 125 g ai/ha): 80
- Plant response rating, Crabgrass, Brazil (crabgrass, Brazil; 250 g ai/ha): 98
- Plant response rating, Arrowleaf Sida (arrowleaf sida; 16 g ai/ha): 0
- Plant response rating, Arrowleaf Sida (arrowleaf sida; 31 g ai/ha): 0
- Plant response rating, Arrowleaf Sida (arrowleaf sida; 62 g ai/ha): 0
- Plant response rating, Arrowleaf Sida (arrowleaf sida; 125 g ai/ha): 0
- Plant response rating, Arrowleaf Sida (arrowleaf sida; 250 g ai/ha): 0
- Plant response rating, Poinsettia, Wild (wild poinsettia; 16 g ai/ha): 0
- Plant response rating, Poinsettia, Wild (wild poinsettia; 31 g ai/ha): 0
- Plant response rating, Poinsettia, Wild (wild poinsettia; 62 g ai/ha): 0
- Plant response rating, Poinsettia, Wild (wild poinsettia; 125 g ai/ha): 0
- Plant response rating, Poinsettia, Wild (wild poinsettia; 250 g ai/ha): 0

Compound: O=C1NCC(c2cccc(C(F)(F)F)c2)C1C(=O)Nc1cccc(F)c1F (stereo not drawn) [Compound 241]
- Plant response rating, Speedwell (speedwell; 31 g ai/ha): 10
- Plant response rating, Speedwell (speedwell; 62 g ai/ha): 35
- Plant response rating, Speedwell (speedwell; 125 g ai/ha): 70
- Plant response rating, Speedwell (speedwell; 250 g ai/ha): 85

Compound: O=C1NCC(c2cccc(C(F)(F)F)c2)C1C(=O)Nc1ccccc1F (racemic) [Compound 3]
- Plant response rating, Watergrass, Late (watergrass, late; 250 g ai/ha): 80
- Plant response rating, Watergrass, Late (watergrass, late; 500 g ai/ha): 85

Compound: O=C1NCC(c2cc(F)c(F)c(F)c2)C1C(=O)Nc1ccccc1C(F)(F)F (racemic) [Compound 33]
- Plant response rating (Russian thistle; 16 g ai/ha): 0
- Plant response rating (Russian thistle; 31 g ai/ha): 0
- Plant response rating (Russian thistle; 62 g ai/ha): 0
- Plant response rating (Russian thistle; 125 g ai/ha): 0
- Plant response rating (Russian thistle; 250 g ai/ha): 0
- Plant response rating (speedwell; 16 g ai/ha): 0
- Plant response rating (speedwell; 31 g ai/ha): 0
- Plant response rating (speedwell; 62 g ai/ha): 0
- Plant response rating (speedwell; 125 g ai/ha): 0
- Plant response rating (speedwell; 250 g ai/ha): 10

Compound: O=C1NCC(c2cccc(C(F)(F)F)c2)C1C(=O)Nc1ccc(F)cc1F (racemic) [Compound 207]
- Plant response rating, Watergrass, Late (watergrass, late; 125 g ai/ha): 65
- Plant response rating, Watergrass, Late (watergrass, late; 250 g ai/ha): 85
- Plant response rating, Watergrass, Late (watergrass, late; 500 g ai/ha): 90
- Plant response rating, Speedwell (speedwell; 31 g ai/ha): 20
- Plant response rating, Speedwell (speedwell; 62 g ai/ha): 20
- Plant response rating, Speedwell (speedwell; 125 g ai/ha): 25
- Plant response rating, Speedwell (speedwell; 250 g ai/ha): 30

Compound: O=C1NCC(c2ccc(C(F)(F)F)c(F)c2)C1C(=O)Nc1cccc(F)c1F (racemic) [Compound 247]
- Plant response rating, Watergrass, Late (watergrass, late; 125 g ai/ha): 65
- Plant response rating, Watergrass, Late (watergrass, late; 250 g ai/ha): 65
- Plant response rating, Watergrass, Late (watergrass, late; 500 g ai/ha): 70
- Plant response rating, Watergrass, Late (watergrass, late; 1000 g ai/ha): 85
- Plant response rating, Watergrass, Late (watergrass, late; 2000 g ai/ha): 90

Source: US10294202B2, “Pyrrolidinones as herbicides” (FMC Corporation, priority 2013, dated 2019)
